Measured values published in paper PMC10900488, “Synthesis and Evaluation of (Bis)benzyltetrahydroisoquinoline Alkaloids as Antiparasitic Agents” (JACS Au, 2024).
Read-outs that look alike come from different tables or passages of the source.

Columns and labels:
[1] = test system: L. donovani promastigotes; set-up: method as in PMID 26625837, PMID 12203262, PMID 3253497, PMID 25629555, PMID 3075676; settings: reported antiparasitic activity; cited from earlier work
mNG::RAD51 promastigotes = assay: mNG::RAD51 nuclear foci studies; format: cell-based, Leishmania (L.) mexicana; settings: 25 μg mL-1, from 2 h posttreatment
Description: DSBs often lead to cytotoxicity, which could be an explanation for the observed compound activity.[44]−[46]Leishmania employ the RAD51 DNA recombinase protein as part of its DNA repair machinery to fix naturally occurring nuclear DSBs via homologous recombination.[47]−[50] Using a CRISPR/Cas9 gene editing strategy,[51] we generated a genetically modified cell line with mNeonGreen tagged RAD51. This would allow observation of fluorescent RAD51 protein recruitment to foci in the nucleus corresponding to DSB accumulation, as has been shown in T. brucei.[52],[53] Phleomycin was used as a positive control to induce DSBs,[54] which led to the expected observation of accumulation of RAD51 as green dots in the nucleus in 80% of cells from as early as 2 h posttreatment (Figure 2D). […] We can therefore conclude that the BI compounds tested are unlikely to act via DSBs (albeit this methodology is sensitive only to DSBs in nuclear DNA), and another mechanism of cell cycle disruption is responsible for the breakdown in the healthy cell cycle.
(§1) NCTC cells (6 × 10^4/well) were added to a 96-well plate. Treatments of the cells with selected compounds (serially diluted 1.5 to 200 μM) was performed in a humidified incubator for 96 h at 37 °C and with 5% CO2.
(§2) The MTT colorimetric method was used to determine the 50% cytotoxic concentration (CC50) and the selectivity index (CC50 against NCTC cells/IC50 against amastigotes).15 […]
[…] […] Statistical significance was derived from a two-tailed T-test.
The Graph Pad Prism 5 software was used to perform sigmoid dose-response curves for the determination of […]
(§3) […] At 6 h and 24 h post-treatment, a 1 mL aliquot was taken for imaging. The cell cycle experiment was preformed twice independently.
(§4) Generation of mNG::RAD51 tagged cell line
(§5) The single-stranded DNA-binding protein RAD51, associated with DNA Repair, LmxM.28.0550 was tagged with endogenous fluorescent protein mNeonGreen (mNG) at the N-terminus. […]
Primers for constructs and sgRNA were designed using LeishGEdit (http://www.leishGEdit.net). […]

T. cruzi epimastigotes = test system: T. cruzi epimastigotes; set-up: method as in PMID 26625837, PMID 12203262, PMID 3253497, PMID 25629555, PMID 3075676; settings: reported antiparasitic activity; cited from earlier work
[2] = test system: L. infantum promastigotes; assay: Antipromastigote assay (L. infantum), MTT colorimetric; format: cell-based, Leishmania (L.) infantum; settings: ± SD, MTT, 48 h; for IC50: read-out: L. infantum IC50 promastigotes
Experimental: (§6) Table 1 depicts the antileishmanial (L. infantum) activity evaluation performed against both the amastigote form (evaluated microscopically using an ex vivo intracellular model of mice macrophages) and the promastigote one (using an MTT colorimetric method).[32],[33] The cytotoxicity was evaluated against NCTC cells using an MTT colorimetric method and the selectivity index was determined using the ratio between the CC50 values (NCTC cells) and the IC50 values (amastigotes).[32] […] With respect to the substituents on the C ring, larger, hydrophobic groups conferred greater bioactivity (e.g., 9b–d), whereas small, hydrophilic groups such as a hydroxyl group afford modest to poor bioactivity.
(§7) Leishmania (L.) infantum (MHOM/BR/1972/LD) amastigotes were obtained from golden hamsters (Mesocricetus auratus) spleens following 60-70 days of infection via differential centrifugation. The Stauber method was used to determine the number of parasites.12 […]
Biological activity assays
Antipromastigote Assay (L. infantum)
L. infantum promastigotes (1 × 10^6 cells/well) were added to a 96-well plates. Treatment of the cells with selected compounds (serially diluted 0.14 to 200 μM) was performed in M199 medium supplemented with 0.25% hemin and 10% fetal bovine serum for 48 h at 24 °C. The MTT colorimetric assay was used to determine the activity (IC50) of the compounds. Miltefosine was used as a standard drug and untreated promastigotes were used as a negative control. The half inhibitory concentration (IC50) was determined from a sigmoidal regression of the concentration-response curves generated in GraphPadPrism7. […]

T. cruzi trypomastigotes = assay: Antitrypomastigote assay (T. cruzi), resazurin; format: cell-based, Trypanosoma (T.) cruzi; settings: ± SD, resazurin, 24 h, read-out: T. cruzi IC50 trypomastigotes
Experimental: (§8) T. cruzi also assumes several cell morphologies during its lifecycle, which differ between the insect vector and mammalian host. In the latter environment, the parasite transitions between extracellular bloodstream trypomastigotes and intracellular amastigotes; both forms are clinically relevant, particularly during the acute stage of Chagas disease.[34] In this work, antitrypanosomal activity was tested against both the amastigote form (evaluated microscopically using an ex vivo intracellular model using mice macrophages) and the trypomastigote form (using the resazurin in vitro assay).[33],[35] […] In silico predictions of pharmacokinetic profiles were carried out using the SwissADME webtool (see the Supporting Information for details).[36] […]
(§9) […] Cultivation was performed in 2% fetal calf serum supplemented RPMI-1640 medium.
(§10) The trypomastigotes were maintained in a humidified incubator at 37 °C and with 5% CO2. […]
(§11) Biological activity assays […]
The half inhibitory concentration (IC50) was determined from a sigmoidal regression of the concentration-response curves generated in GraphPadPrism7. […]
Treatment of the cells with selected compounds (serially diluted 1.2 to 150 μM) was performed in a humidified incubator in RPMI 1640 medium for 24 h at 37 °C and with 5% CO2. Resazurin (0.011% in PBS) was added subsequently to verify parasite viability. Benznidazole was used as a standard drug. The optical density was determined at 570 nm using the FilterMax F5 (Molecular Devices). […]

NCTC cells = assay: Mammalian toxicity, MTT colorimetric; format: cell-based, murine
Experimental: as §6, with “bioactivity. […]” for “bioactivity.”
(§12) Murine conjunctive fibroblasts NCTC clone 929 (ATCC) were maintained in 10% foetal calf serum supplemented RPMI-1640 medium (pH 7.2) at 37 °C in a humidified incubator with 5% CO2. […]
as §11, §1, §2, §3, §4, §5
(§13) Primers for constructs and sgRNA were designed using LeishGEdit (http://www.leishGEdit.net).
(§14) PCR was at 94 °C for 5 min, followed by 35 cycles at 94 °C (15 sec), 65 °C (15 sec), 72 °C (2 min) then finally 72 °C (1 min).
(§15) PCR was at 94 °C for 30 sec, followed by 30 cycles at 94 °C (30 sec), 60 °C (30 sec), 72 °C (30 sec) then finally 72 °C (2 min). […] Combined PCR products were precipitated for 20 min with 10 μL 3M sodium acetate and 300 μL EtOH, pelleted at 14000 min-1 30 min, washed once with 70% EtOH, re-pelleted and resuspended in […]
(§16) Promastigotes (1 × 10^7 cells) were combined with PCR products and transfected using the Amaxa Nucleofector II.17 Electroporation was performed using 2 mm cuvettes on the X-100 program, followed by immediate suspension in pre-warmed M199 medium. Successful transfectants were selected with 20 μg mL-1 Puromycin 15 h after transfection, taking 4 days to reach stable growth in culture. mNG::RAD51 nuclear foci studies mNG::RAD51 promastigotes (5 × 10^6 cells mL-1) in 7 mL of M199 medium were treated with 7 μL o f compound (S)-9a or (S)-9b dissolved in DMSO giving a final concentration of 50 μM. Phleomycin was used as a positive control at a final concentration of 25 μg mL-1. At T = 0, 15, 30, 60 min, and 2, 6, 24 h post-treatment a 0.8 mL aliquot was taken for imaging.

T. cruzi amastigotes = assay: Antiamastigote assay (T. cruzi), ex vivo intracellular model using mice macrophages, microscopy; format: cell-based, Trypanosoma (T.) cruzi; settings: ± SD, 48 h, read-out: T. cruzi IC50 amastigotes
Experimental: as §8, §9, §10
(§17) Peritoneal macrophages were obtained via washing the peritoneal cavity of BALB/c mice with 10% foetal calf serum supplemented RPMI-1640 medium (pH 7.2). The macrophages were maintained in a humidified incubator at 37 °C and with 5% CO2.
as §11
Peritoneal macrophages (1 × 10^5 cells/well) obtained from the peritoneal cavity of BALB/C mice were added to 16-well chambers (NUNC, Thermo Fischer Scientific). The cells were infected with trypomastigotes (10:1 parasites/macrophage) for 2 h. Then treatment of the infected macrophages with selected compounds (serially diluted 1.2 to 100 μM) was performed in a humidified incubator for 48 h at 37 °C and with 5% CO2. The treated cells were fixed on slides using methanol, stained with Giemsa and observed under a light microscope (EVOS M5000, Thermo, USA) with digital image equipment. The infection index was used in order to determine the half inhibitory concentration (IC50) (no. infected macrophages × no. amastigotes / total no.

L. infantum amastigotes = assay: Antiamastigote assay (L. infantum), ex vivo intracellular model of mice macrophages, microscopy; format: cell-based, Leishmania (L.) infantum; settings: ± SD, intracellular, peritoneal macrophages, 96 h, read-out: L. infantum IC50 amastigotes
Experimental: as §6, §7, §17, §11
Antiamastigote Assay (L. infantum)
Peritoneal macrophages (1 × 10^5/well) were added to a 16-well slide chambers (NUNC) and incubated with 5% CO2 at 37 °C. The cells were subsequently infected with L. infantum amastigotes (10:1 amastigotes/macrophage) for 24 h. Treatment of the cells with selected compounds (serially diluted 1.2 to 150 μM) was performed in a humidified incubator for 96 h at 37 °C and with 5% CO2. Untreated cells were used as a negative control and miltefosine was used as a standard drug. The treated cells were fixed on slides with methanol, stained with Giemsa and observed under a light microscope.13 The infection index was used in order to determine the half inhibitory concentration (IC50) (no. infected macrophages × no. amastigotes / total no. […]

[3] = Mammalian toxicity, MTT colorimetric; format: cell-based, murine; settings: mouse
Experimental: as §6, with “bioactivity. […]” for “bioactivity.”
as §12, §11, §1, §2, §3, §4, §5, §13, §14, §15, §16

[4] = Trypanosoma cruzi, Peritoneal macrophage
[5] = Leishmania infantum, Peritoneal macrophage

Compound	IC50 ([2]; Leishmania infantum) [µM]	IC50 (T. cruzi trypomastigotes; Trypanosoma cruzi) [µM]	CC50 at 96 h [3] [µM]	IC50 (T. cruzi amastigotes; [4]) [µM]	IC50 (L. infantum amastigotes; [5]) [µM]	also measured
COc1ccc2cc1Oc1ccc(cc1)C[C@H]1c3cc(OC)c(OC)c(c3CCN1C)Oc1c(O)c(OC)cc3c1[C@H](C2)NCC3 [compound 2, northalrugosidine]	–	–	–	–	–	IC50 [1]: 0.28 µM
Phleomycin [reference compound]	–	–	–	–	–	cells with accumulation of RAD51 in the nucleus (mNG::RAD51 promastigotes): 80%
COc1ccc2cc1Oc1ccc(cc1)C[C@H]1c3c(cc(OC)c(O)c3Oc3cc4c(cc3OC)CCN[C@@H]4C2)CCN1C [compound 3, daphnandrine]	–	–	–	–	–	IC50 (T. cruzi epimastigotes): 43 µM
COc1ccc(COc2ccc(C[C@H]3c4cc(OC)c(OC)cc4CCN3C)cc2)cc1 [(S)-10c]	–	–	–	–	–	IC50 [2]: 4.8 ± 0.2 µM; IC50 (T. cruzi trypomastigotes): 20.4 ± 11.4 µM; CC50 (NCTC cells): 5.8 ± 0.5 µM; IC50 (T. cruzi amastigotes; peritoneal macrophages): > 100 µM; IC50 (L. infantum amastigotes): > 150 µM
COc1cc2c(cc1OC)[C@@H](Cc1ccc(OC)c(Oc3ccc(C[C@H]4c5cc(OC)c(OC)cc5CCN4C)cc3)c1)N(C)CC2 [(R,S)-11]	0.6 ± 0.1	6.5 ± 2.1	7.3 ± 0.7	> 100	> 150	–
COc1cc2c(cc1OC)[C@@H](Cc1ccc(Oc3cc(C[C@@H]4c5cc(OC)c(OC)cc5CCN4C)ccc3OC)cc1)N(C)CC2 [(R,R)-11, (−)-O-methyldauricine]	0.7 ± 0.1	7.2 ± 0.6	11.4 ± 4.8	1.5 ± 0.2	> 150	–
COc1cc2c(cc1OC)[C@H](Cc1ccc(O)cc1)N(C)CC2 [(S)-10b, (+)-armepavine]	36.2 ± 5.2	124 ± 2.3	> 200	> 100	> 150	–
COc1cc2c(cc1OC)[C@@H](Cc1ccc(Oc3cc(C[C@H]4c5cc(OC)c(OC)cc5CCN4C)ccc3O)cc1)N(C)CC2 [(R,S)-13]	3.2 ± 1.7	10.1 ± 3.9	13.3 ± 1.6	2.8 ± 0.6	> 150	–
COc1ccc(COc2ccc(C[C@@H]3c4cc(OC)c(OC)cc4CCN3C)cc2Oc2ccc(C[C@H]3c4cc(OC)c(OC)cc4CCN3C)cc2)cc1 [(R,S)-12]	0.4 ± 0.2	1.3 ± 0.7	2.7 ± 1.6	> 100	> 150	L. infantum IC50 promastigotes [2]: submicromolar
COc1ccc(COc2ccc(C[C@H]3c4cc(OC)c(OC)cc4CCN3C)cc2Oc2ccc(C[C@@H]3c4cc(OC)c(OC)cc4CCN3C)cc2)cc1 [(S,R)-12]	0.7 ± 0.1	1.7 ± 0.3	4.7 ± 1.7	> 100	> 150	L. infantum IC50 promastigotes [2]: submicromolar
COc1ccc(COc2ccc(C[C@@H]3c4cc(OC)c(OC)cc4CCN3C)cc2)cc1 [(R)-10c]	–	–	–	–	–	IC50 [2]: 2.4 ± 0.9 µM; IC50 (T. cruzi trypomastigotes): 25.3 ± 2.1 µM; CC50 (NCTC cells): 28.1 ± 5.5 µM; IC50 (T. cruzi amastigotes; peritoneal macrophages): > 100 µM; IC50 (L. infantum amastigotes): 9.3 ± 0.4 µM
